Measurements published in patent publication US11713341B1, “Antimicrobial NCR13 variant peptides” (Vestaron Corporation, priority 2022, dated 2023).
Where a SMILES comes first, the peptide text is derived from it.

System: Botrytis cinerea
Assay: Antimicrobial bioassay (Botrytis cinerea): growth inhibition by OD600
Assay type: cell-based
Conditions: for anti-Botrytis activities relative to NCR13a: Botrytis cinerea growth, comparison with NCR13a; for Activity ratio to NCR13a: anti-Botrytis cinerea activity (IC50) relative to comparator NCR13a
Experimental: The antimicrobial effect of the NCR13 variant peptides (NVPs) of the present disclosure were evaluated against the fungal species, Botrytis cinerea. […] The growth of Botrytis cinerea was then assessed via OD600 nm after incubation with a given NVP at room temperature after 96 hours. The IC50 of each peptide analyzed is shown in ppm.
The antimicrobial effect of the NCR13 variant peptides (NVPs) of the present disclosure were evaluated against the fungal species, Botrytis cinerea. […] The growth of Botrytis cinerea was then assessed via OD600 nm after incubation with a given NVP at room temperature after 96 hours.
The NVPs assessed were as follows: NVPM3 (+L) (SEQ ID NO: 5); NVPM5 (+M) (SEQ ID NO: 7); NVPM6 (+F) (SEQ ID NO: 8); NVPM7 (+W) (SEQ ID NO: 9); NVPM9 (+S) (SEQ ID NO: 11); NVPM11 (+Y) (SEQ ID NO: 13); NVPM14 (+D) (SEQ ID NO: 16); and NVPM15 (+E) (SEQ ID NO: 17).
NVPs having an amino acid sequence of SEQ ID NOs: 5, 7, 8, 9, 11, 13, 16, and 17 were generated as described above in Example 1. The peptide, NCR13a, having an amino acid sequence of: […] (SEQ ID NO: 2) was selected as a comparator peptide, with which the antifungal activity of the foregoing NVPs was compared.
The fungal species was Botrytis cinerea was cultured in potato dextrose agar plates. Fungal spores were collected from the agar plates and suspended into de-ionized water, followed by enumeration in a Petroff-Hausser counting chamber (VWR).
The 96-well plates were incubated at room temperature for 96 hours without shaking. The OD600 of the culture plate was determined using SpectraMax plate reader. Relative OD600 was determined by normalizing cell growth to control wells containing neither NVPs nor NCR13a. The OD600 was used to determine IC50.

Question: What does the source list for `CC[C@H](C)[C@H](NC(=O)[C@H](CS)NC(=O)[C@H](CCCCN)NC(=O)[C@@H]1CCCN1C(=O)[C@@H](NC(=O)[C@H](CCCCN)NC(=O)[C@@H]1CCCN1C(=O)[C@H](CCCCN)NC(=O)[C@H](CCCNC(=N)N)NC(=O)[C@H](CS)NC(=O)[C@H](C)NC(=O)[C@H](Cc1ccccc1)NC(=O)[C@H](CCCCN)NC(=O)[C@H](CCCCN)NC(=O)[C@H](CS)NC(=O)[C@H](CC(=O)O)NC(=O)[C@H](CCCCN)NC(=O)[C@H](CC(=O)O)NC(=O)[C@H](CO)NC(=O)[C@H](CCC(N)=O)NC(=O)[C@H](CS)NC(=O)[C@@H]1CCCN1C(=O)[C@H](CCCCN)NC(=O)[C@@H](NC(=O)[C@@H](N)Cc1ccccc1)[C@@H](C)O)C(C)C)C(=O)N[C@@H](CC(N)=O)C(=O)NCC(=O)N[C@@H](Cc1ccccc1)C(=O)N[C@@H](CS)C(=O)N[C@@H](CCCCN)C(=O)N[C@@H](CS)C(=O)N[C@H](C(=O)N[C@@H](CCCNC(=N)N)C(=O)O)C(C)C` [NVPM6] (H-FTKPCQSDKDCKKFACRKPKVPKCINGFCKCVR-OH; N-terminus and C-terminus assumed)?
Answer: anti-Botrytis activities relative to NCR13a: improved anti-Botrytis activities relative to NCR13a; Activity ratio to NCR13a: 1.82

Question: `CC[C@H](C)[C@H](NC(=O)[C@H](CS)NC(=O)[C@H](CCCCN)NC(=O)[C@@H]1CCCN1C(=O)[C@@H](NC(=O)[C@H](CCCCN)NC(=O)[C@@H]1CCCN1C(=O)[C@H](CCCCN)NC(=O)[C@H](CCCNC(=N)N)NC(=O)[C@H](CS)NC(=O)[C@H](C)NC(=O)[C@H](Cc1ccccc1)NC(=O)[C@H](CCCCN)NC(=O)[C@H](CCCCN)NC(=O)[C@H](CS)NC(=O)[C@H](CC(=O)O)NC(=O)[C@H](CCCCN)NC(=O)[C@H](CC(=O)O)NC(=O)[C@H](CO)NC(=O)[C@H](CCC(N)=O)NC(=O)[C@H](CS)NC(=O)[C@@H]1CCCN1C(=O)[C@H](CCCCN)NC(=O)[C@@H](NC(=O)[C@@H](N)CCC(=O)O)[C@@H](C)O)C(C)C)C(=O)N[C@@H](CC(N)=O)C(=O)NCC(=O)N[C@@H](Cc1ccccc1)C(=O)N[C@@H](CS)C(=O)N[C@@H](CCCCN)C(=O)N[C@@H](CS)C(=O)N[C@H](C(=O)N[C@@H](CCCNC(=N)N)C(=O)O)C(C)C` [NVPM15] (H-ETKPCQSDKDCKKFACRKPKVPKCINGFCKCVR-OH; N-terminus and C-terminus assumed) was tested. Which “anti-Botrytis activities relative to NCR13a” value did it give?
Answer: improved anti-Botrytis activities relative to NCR13a

Question: What about the “Activity ratio to NCR13a” value of the same compound?
Answer: 1.43

Question: What does the source list for `CC[C@H](C)[C@H](NC(=O)[C@H](CS)NC(=O)[C@H](CCCCN)NC(=O)[C@@H]1CCCN1C(=O)[C@@H](NC(=O)[C@H](CCCCN)NC(=O)[C@@H]1CCCN1C(=O)[C@H](CCCCN)NC(=O)[C@H](CCCNC(=N)N)NC(=O)[C@H](CS)NC(=O)[C@H](C)NC(=O)[C@H](Cc1ccccc1)NC(=O)[C@H](CCCCN)NC(=O)[C@H](CCCCN)NC(=O)[C@H](CS)NC(=O)[C@H](CC(=O)O)NC(=O)[C@H](CCCCN)NC(=O)[C@H](CC(=O)O)NC(=O)[C@H](CO)NC(=O)[C@H](CCC(N)=O)NC(=O)[C@H](CS)NC(=O)[C@@H]1CCCN1C(=O)[C@H](CCCCN)NC(=O)[C@@H](NC(=O)[C@@H](N)CO)[C@@H](C)O)C(C)C)C(=O)N[C@@H](CC(N)=O)C(=O)NCC(=O)N[C@@H](Cc1ccccc1)C(=O)N[C@@H](CS)C(=O)N[C@@H](CCCCN)C(=O)N[C@@H](CS)C(=O)N[C@H](C(=O)N[C@@H](CCCNC(=N)N)C(=O)O)C(C)C` [NVPM9] (H-STKPCQSDKDCKKFACRKPKVPKCINGFCKCVR-OH; N-terminus and C-terminus assumed)?
Answer: anti-Botrytis activities relative to NCR13a: improved anti-Botrytis activities relative to NCR13a; Activity ratio to NCR13a: 1.66

Question: `CC[C@H](C)[C@H](NC(=O)[C@H](CS)NC(=O)[C@H](CCCCN)NC(=O)[C@@H]1CCCN1C(=O)[C@@H](NC(=O)[C@H](CCCCN)NC(=O)[C@@H]1CCCN1C(=O)[C@H](CCCCN)NC(=O)[C@H](CCCNC(=N)N)NC(=O)[C@H](CS)NC(=O)[C@H](C)NC(=O)[C@H](Cc1ccccc1)NC(=O)[C@H](CCCCN)NC(=O)[C@H](CCCCN)NC(=O)[C@H](CS)NC(=O)[C@H](CC(=O)O)NC(=O)[C@H](CCCCN)NC(=O)[C@H](CC(=O)O)NC(=O)[C@H](CO)NC(=O)[C@H](CCC(N)=O)NC(=O)[C@H](CS)NC(=O)[C@@H]1CCCN1C(=O)[C@H](CCCCN)NC(=O)[C@@H](NC(=O)CN)[C@@H](C)O)C(C)C)C(=O)N[C@@H](CC(N)=O)C(=O)NCC(=O)N[C@@H](Cc1ccccc1)C(=O)N[C@@H](CS)C(=O)N[C@@H](CCCCN)C(=O)N[C@@H](CS)C(=O)N[C@H](C(=O)N[C@@H](CCCNC(=N)N)C(=O)O)C(C)C` [NCR13a, reference compound] (H-GTKPCQSDKDCKKFACRKPKVPKCINGFCKCVR-OH; N-terminus and C-terminus assumed) was tested. Which “IC50 (ppm)” value (amount required to achieve IC50 in Botrytis cinerea cells, growth by OD600 after 96 hours at room temperature in synthetic fungal medium, 2-fold serial dilution) did it give?
Answer: 2.36 ppm

Question: What about the “Activity ratio to NCR13a” value of the same compound?
Answer: 1
